Assay results published in patent US11739098B2 (BRISTOL-MYERS SQUIBB COMPANY, priority 2017, dated 2023).

Assays:
Assay type in all cases: cell-based
human TLR7 = biological target: T1, human TLR7 (Homo sapiens, UniProt Q9NYK1); experiment: TLR7 inhibition reporter assay (HEK-Blue cells, SEAP reporter, gardiquimod stimulation); conditions: HEK-Blue cells overexpressing human TLR7, SEAP reporter, gardiquimod 7.5 μM
T1 construct: host or cells: HEK-Blue cells (HEK293-derived reporter line)
T1 sequence (Q9NYK1 27-1049): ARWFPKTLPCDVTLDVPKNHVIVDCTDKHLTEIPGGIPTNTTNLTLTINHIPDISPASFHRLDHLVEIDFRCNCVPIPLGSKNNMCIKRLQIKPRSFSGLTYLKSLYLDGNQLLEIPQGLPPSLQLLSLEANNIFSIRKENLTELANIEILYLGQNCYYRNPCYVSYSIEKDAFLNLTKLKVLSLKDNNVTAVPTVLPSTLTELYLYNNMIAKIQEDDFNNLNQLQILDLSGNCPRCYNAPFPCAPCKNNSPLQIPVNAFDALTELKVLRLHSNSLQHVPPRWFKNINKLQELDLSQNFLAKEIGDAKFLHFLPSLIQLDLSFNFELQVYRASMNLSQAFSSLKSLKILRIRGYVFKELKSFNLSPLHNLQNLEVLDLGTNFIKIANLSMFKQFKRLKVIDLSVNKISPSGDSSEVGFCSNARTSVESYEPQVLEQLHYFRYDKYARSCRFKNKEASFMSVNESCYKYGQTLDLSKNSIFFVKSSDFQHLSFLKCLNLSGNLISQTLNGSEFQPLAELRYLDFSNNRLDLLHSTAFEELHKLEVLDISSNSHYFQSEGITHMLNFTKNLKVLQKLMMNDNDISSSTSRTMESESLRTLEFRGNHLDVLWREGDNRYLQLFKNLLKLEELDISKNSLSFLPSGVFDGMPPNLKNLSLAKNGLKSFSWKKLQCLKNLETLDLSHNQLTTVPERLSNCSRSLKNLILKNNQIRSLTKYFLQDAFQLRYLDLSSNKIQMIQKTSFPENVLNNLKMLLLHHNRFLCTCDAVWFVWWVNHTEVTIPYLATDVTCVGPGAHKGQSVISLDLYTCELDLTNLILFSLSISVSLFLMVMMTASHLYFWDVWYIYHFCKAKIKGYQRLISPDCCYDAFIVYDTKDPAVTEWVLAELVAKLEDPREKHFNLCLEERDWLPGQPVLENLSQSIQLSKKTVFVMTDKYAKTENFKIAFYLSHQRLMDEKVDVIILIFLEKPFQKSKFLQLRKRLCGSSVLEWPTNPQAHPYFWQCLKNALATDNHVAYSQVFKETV
Method in brief: (§1)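 Cells seeded per well (15000 TLR7, 20,000 TLR8, 25,000 TLR9); compound added over 0.05 nM–50 μM for 30 min at room temperature; agonist added (TLR7 gardiquimod 7.5 μM, TLR8 R848 15.9 μM, TLR9 ODN2006 5 nM); 22 h at 37 °C; SEAP measured; percent inhibition calculated.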

human TLR8 = biological target: T2, human TLR8 (Homo sapiens, UniProt Q9NR97); experiment: TLR8 inhibition reporter assay (HEK-Blue cells, SEAP reporter, R848 stimulation); conditions: HEK-Blue cells overexpressing human TLR8, SEAP reporter, R848 15.9 μM
T2 construct: host or cells: HEK-Blue cells (HEK293-derived reporter line)
T2 sequence (Q9NR97 27-1041): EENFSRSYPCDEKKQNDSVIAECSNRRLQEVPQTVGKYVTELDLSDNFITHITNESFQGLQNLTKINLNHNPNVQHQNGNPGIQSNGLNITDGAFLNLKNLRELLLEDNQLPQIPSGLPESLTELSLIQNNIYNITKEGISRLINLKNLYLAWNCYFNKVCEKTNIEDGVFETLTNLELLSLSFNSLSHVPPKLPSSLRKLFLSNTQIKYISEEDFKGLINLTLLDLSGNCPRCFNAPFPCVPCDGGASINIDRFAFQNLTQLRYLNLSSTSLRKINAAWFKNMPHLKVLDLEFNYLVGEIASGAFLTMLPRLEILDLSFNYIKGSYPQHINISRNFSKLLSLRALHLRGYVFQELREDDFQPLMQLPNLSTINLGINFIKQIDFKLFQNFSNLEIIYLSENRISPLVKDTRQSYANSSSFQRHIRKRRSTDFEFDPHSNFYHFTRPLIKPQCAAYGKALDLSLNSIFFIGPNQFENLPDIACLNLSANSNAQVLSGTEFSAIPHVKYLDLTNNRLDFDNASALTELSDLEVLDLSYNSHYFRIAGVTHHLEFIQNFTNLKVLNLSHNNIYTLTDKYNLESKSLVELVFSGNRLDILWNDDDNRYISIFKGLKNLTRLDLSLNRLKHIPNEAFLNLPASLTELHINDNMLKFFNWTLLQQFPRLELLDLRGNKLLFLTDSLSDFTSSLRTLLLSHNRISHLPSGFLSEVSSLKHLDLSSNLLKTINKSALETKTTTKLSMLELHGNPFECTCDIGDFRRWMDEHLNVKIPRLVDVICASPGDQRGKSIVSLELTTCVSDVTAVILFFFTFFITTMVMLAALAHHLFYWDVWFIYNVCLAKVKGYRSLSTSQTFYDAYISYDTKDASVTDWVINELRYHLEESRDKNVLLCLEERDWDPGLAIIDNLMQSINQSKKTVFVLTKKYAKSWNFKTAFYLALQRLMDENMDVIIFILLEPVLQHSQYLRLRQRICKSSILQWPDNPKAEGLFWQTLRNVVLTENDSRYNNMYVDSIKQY
Method in brief: as §1

human TLR9 = biological target: T3, human TLR9 (Homo sapiens, UniProt Q9NR96); experiment: TLR9 inhibition reporter assay (HEK-Blue cells, SEAP reporter, ODN2006 stimulation); conditions: HEK-Blue cells overexpressing human TLR9, SEAP reporter, ODN2006 5 nM
T3 construct: host or cells: HEK-Blue cells (HEK293-derived reporter line)
T3 sequence (Q9NR96 26-1032): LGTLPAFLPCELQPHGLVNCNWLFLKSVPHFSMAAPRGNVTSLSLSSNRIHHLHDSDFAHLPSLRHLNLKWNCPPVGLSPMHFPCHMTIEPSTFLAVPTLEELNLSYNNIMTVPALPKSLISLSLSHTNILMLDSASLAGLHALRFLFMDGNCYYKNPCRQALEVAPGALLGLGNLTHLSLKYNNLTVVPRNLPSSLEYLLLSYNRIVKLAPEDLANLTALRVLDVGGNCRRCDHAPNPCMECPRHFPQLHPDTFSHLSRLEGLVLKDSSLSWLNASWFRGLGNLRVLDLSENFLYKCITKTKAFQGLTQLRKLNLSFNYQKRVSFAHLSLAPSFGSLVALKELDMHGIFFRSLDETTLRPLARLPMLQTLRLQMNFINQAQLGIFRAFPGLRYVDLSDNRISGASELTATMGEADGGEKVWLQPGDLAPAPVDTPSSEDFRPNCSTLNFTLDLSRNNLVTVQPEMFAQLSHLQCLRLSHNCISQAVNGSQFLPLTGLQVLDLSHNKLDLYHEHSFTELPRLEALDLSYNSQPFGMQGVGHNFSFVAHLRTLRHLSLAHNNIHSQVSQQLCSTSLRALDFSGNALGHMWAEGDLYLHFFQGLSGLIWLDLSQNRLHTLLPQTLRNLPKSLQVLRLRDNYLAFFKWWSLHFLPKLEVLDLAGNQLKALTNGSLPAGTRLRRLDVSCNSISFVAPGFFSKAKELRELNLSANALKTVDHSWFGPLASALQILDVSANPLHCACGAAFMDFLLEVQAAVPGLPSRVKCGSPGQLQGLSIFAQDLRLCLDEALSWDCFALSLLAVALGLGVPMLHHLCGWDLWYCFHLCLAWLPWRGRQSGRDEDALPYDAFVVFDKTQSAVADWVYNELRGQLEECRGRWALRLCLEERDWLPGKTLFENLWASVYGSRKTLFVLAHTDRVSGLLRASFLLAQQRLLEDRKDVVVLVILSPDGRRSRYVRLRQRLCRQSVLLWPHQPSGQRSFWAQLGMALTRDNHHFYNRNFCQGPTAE
Method in brief: as §1

IC50 (human TLR7) [nM]	IC50 (human TLR8) [nM]	IC50 (human TLR9) [nM]	Structure (SMILES)
< 100	< 100	1000 to 50000	CC(C)c1c(-c2ccnc3[nH]ncc23)[nH]c2ccc(C3CCN(Cc4ccccn4)CC3)cc12 [Example 866, 4-(3-isopropyl-5-(1-(pyridin-2-ylmethyl)piperidin-4-yl)-1H-indol-2-yl)-1H-pyrazolo[3,4-b]pyridine]
< 100	100 to 1000	100 to 1000	CC(C)N1CCC(c2ccc3[nH]c(-c4ccc5nccn5c4)c(CC(F)F)c3c2)CC1 [Example 948, 6-(3-(2,2-difluoroethyl)-5-(1-isopropylpiperidin-4-yl)-1H-indol-2-yl)imidazo[1,2-a]pyridine]
< 100	< 100	1000 to 50000	CC(C)c1c(-c2ccc3ncoc3c2)[nH]c2ccc(C3CCN(CC(=O)N(C)C)CC3)cc12 [Example 288, 2-(4-(2-(benzo[d]oxazol-6-yl)-3-isopropyl-1H-indol-5-yl)piperidin-1-yl)-N,N-dimethylacetamide]
< 100	< 100	1000 to 50000	Cc1cc(-c2[nH]c3ccc(C4CCN(C5COC5)CC4)cc3c2C(C)C)nc2scnc12 [Example 718, 5-(3-isopropyl-5-(1-(oxetan-3-yl)piperidin-4-yl)-1H-indol-2-yl)-7-methylthiazolo[5,4-b]pyridine]
< 100	< 100	100 to 1000	CC(C)c1c(-c2cnc3cn[nH]c3c2)[nH]c2ccc(C3CCNCC3)cc12 [Example 63, 6-(3-isopropyl-5-(piperidin-4-yl)-1H-indol-2-yl)-1H-pyrazolo[4,3-b]pyridine]
1000 to 50000	1000 to 50000	100 to 1000	Cc1c(-c2ccnc3[nH]cc(C(C)C)c23)[nH]c2ccc(C3CCNCC3)cc12 [Example 214, 3-isopropyl-4-(3-methyl-5-(piperidin-4-yl)-1H-indol-2-yl)-1H-pyrrolo[2,3-b]pyridine]
100 to 1000	100 to 1000	1000 to 50000	Cc1cc(-c2[nH]c3ccc(C4CCN(C5COC5)CC4)cc3c2C(C)C)cc2nccn12 [Example 711, 7-(3-isopropyl-5-(1-(oxetan-3-yl)piperidin-4-yl)-1H-indol-2-yl)-5-methylimidazo[1,2-a]pyridine]
< 100	100 to 1000	100 to 1000	CC(C)c1c(-c2ccnc3[nH]ncc23)[nH]c2cc(C(F)(F)F)c(C3CCN(CC4CCNC4)CC3)cc12 (stereo not drawn) [Example 851, 4-(3-isopropyl-5-(1-(pyrrolidin-3-ylmethyl)piperidin-4-yl)-6-(trifluoromethyl)-1H-indol-2-yl)-1H-pyrazolo[3,4-b]pyridine]
< 100	100 to 1000	100 to 1000	Cc1cn2cc(-c3[nH]c4ccc(C5CCNCC5)cc4c3C(C)C)c(C)cc2n1 [Example 122, 6-(3-isopropyl-5-(piperidin-4-yl)-1H-indol-2-yl)-2,7-dimethylimidazo[1,2-a]pyridine]
< 100	< 100	1000 to 50000	Cc1cc2cc(-c3[nH]c4ccc(C5CCNCC5)cc4c3C(C)C)cc(C)n2n1 [Example 142, 5-(3-isopropyl-5-(piperidin-4-yl)-1H-indol-2-yl)-2,7-dimethylpyrazolo[1,5-a]pyridine]
< 100	< 100	1000 to 50000	Cc1cc(-c2[nH]c3ccc(C4CCN(CCS(C)(=O)=O)CC4)cc3c2C(C)C)cn2nnnc12 [Example 789, 6-(3-isopropyl-5-(1-(2-(methylsulfonyl)ethyl)piperidin-4-yl)-1H-indol-2-yl)-8-methyltetrazolo[1,5-a]pyridine]
< 100	< 100	1000 to 50000	Cc1cc(-c2[nH]c3ccc(C4CCN(C(=O)CN(C)C)CC4)cc3c2C(C)C)nn2ncnc12 [Example 454, 2-(dimethylamino)-1-(4-(3-isopropyl-2-(8-methyl-[1,2,4]triazolo[1,5-b]pyridazin-6-yl)-1H-indol-5-yl)piperidin-1-yl)ethan-1-one]
100 to 1000	1000 to 50000	100 to 1000	CC(C)c1c(-c2c[nH]c3cnccc23)[nH]c2ccc(C3CCNCC3)cc12 [Example 15, 3-(3-isopropyl-5-(piperidin-4-yl)-1H-indol-2-yl)-1H-pyrrolo[2,3-c]pyridine]
< 100	< 100	1000 to 50000	Cc1cc2nnnn2cc1-c1[nH]c2ccc(C3CCN(CC(=O)N(C)C)CC3)cc2c1C(C)C [Example 314, 2-(4-(3-isopropyl-2-(7-methyltetrazolo[1,5-a]pyridin-6-yl)-1H-indol-5-yl)piperidin-1-yl)-N,N-dimethylacetamide]
> 50000	> 3130	1000 to 50000	CNCCN1CCC(c2ccc3[nH]c(-c4cc5cc(OC)ccc5o4)c(C)c3c2)CC1 [Example 671, 2-(4-(2-(5-methoxybenzofuran-2-yl)-3-methyl-1H-indol-5-yl)piperidin-1-yl)-N-methylethan-1-amine]
